Reference: publication PMC4515351 (Parasitology, 2014)
Read-outs that look alike come from different tables or passages of the source.

What was measured:
[1] = molecular target: FhGALE (Fasciola hepatica, UniProt A0A3G0ZAV7); format: binding; conditions: for Effect on melting temperature (Tm) of FhGALE: thermal scanning fluorimetry, FhGALE 3.0 µM; for Kd: read-out: apparent dissociation constant (KD,app)
[2] = molecular target: FhGALE (Fasciola hepatica UDP-galactose 4’-epimerase) (Fasciola hepatica, UniProt A0A3G0ZAV7); assay: biochemical; format: biochemical; conditions: for Selectivity of inhibition, FhGALE versus HsGALE (in words): as judged by respective IC50 values; for IC50 range in words: under the conditions tested, summary of Table 1
[3] = molecular target: T1, HsGALE (human GALE) (Homo sapiens, UniProt Q14376); assay: HsGALE inhibition, coupled enzyme assay with UDP-glucose dehydrogenase; format: biochemical
T1 sequence (Q14376 1-348): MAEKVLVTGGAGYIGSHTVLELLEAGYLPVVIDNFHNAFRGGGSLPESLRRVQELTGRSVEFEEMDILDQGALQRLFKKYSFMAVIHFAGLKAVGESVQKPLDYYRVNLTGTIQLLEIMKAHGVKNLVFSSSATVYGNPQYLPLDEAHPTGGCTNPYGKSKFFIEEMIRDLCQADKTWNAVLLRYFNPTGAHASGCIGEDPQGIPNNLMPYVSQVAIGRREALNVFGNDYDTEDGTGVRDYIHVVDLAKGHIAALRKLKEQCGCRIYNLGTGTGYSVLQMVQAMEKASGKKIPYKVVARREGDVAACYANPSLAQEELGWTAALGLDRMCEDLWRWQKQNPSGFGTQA

[4] = tested on: UDP-glucose dehydrogenase; conditions: 100 µM compound, 0.17 mM UDP-glucose, […] NAD+

Row | Compound | Effect on melting temperature (Tm) of FhGALE [1] | IC50 [2] [µM] | Selectivity of inhibition, FhGALE versus HsGALE (in words) [2] | IC50 range in words [2] | IC50 [3] [µM] | Selectivity of inhibition, FhGALE versus HsGALE (in words) ([2]; listed as 5-fluoroorotate) | IC50 ([2]; read-out: FhGALE IC50, pH 7.5) [µM] | Kd [1] [µM] | Effect on rate of coupling enzyme UDP-glucose dehydrogenase [4] | Selectivity of inhibition, FhGALE versus HsGALE (in words) ([2]; listed as N-[(benzyloxy)carbonyl]leucyltryptophan)
1 | NC(=O)c1ccc[n+]([C@@H]2O[C@H](COP(=O)([O-])OP(=O)(O)OC[C@H]3O[C@@H](n4cnc5c(N)ncnc54)[C@H](O)[C@@H]3O)[C@@H](O)[C@H]2O)c1 [NAD^+] | no measurable effect | – | – | – | – | – | – | – | – | –
2 | CC(C)c1nc2c([nH]1)c(=O)n(C)c(=O)n2C [NSC14303] | – | 0.3 ± 0.11 | inhibited the human enzyme to a greater extent than the liver fluke one | submicromolar | 0.013 ± 0.006 | – | – | – | – | –
3 | CC1(C)OC2C(CO)OC(n3cnc4c(=S)nc[nH]c43)C2O1 (centres unmarked) [NSC27305, 9-[6-(hydroxymethyl)-2,2-dimethyltetrahydrofuro[3,4-d][1,3]dioxol-4-yl]-3,9-dihydro-6H-purine-6-thione] | – | 0.00011 ± 0.00012 | inhibited both enzymes to approximately the same extent | sub-nanomolar | 0.0061 ± 0.0092 | – | – | – | – | –
4 | O=C1NC(=O)C(F)C(C(=O)O)N1 (centres unmarked) [NSC31712, 5-fluoro-2,6-dioxohexahydropyrimidine-4-carboxylate] | reducing the Tm in a concentration dependent manner | – | inhibited FhGALE several orders of magnitude more strongly than HsGALE | submicromolar | – | selectivity for FhGALE over HsGALE | 0.03 ± 0.011 | 1900 ± 900 | – | –
5 | Cn1c(=O)c2[nH]c(COc3ccc(C(C)(C)C)cc3)nc2n(C)c1=O [NSC36525, 8-[(4-tert-butylphenoxy)methyl]-1,3-dimethyl-3,7-dihydro-1H-purine-2,6-dione] | – | 260 | inhibited the human enzyme to a greater extent than the liver fluke one | – | 9.5 ± 8.2 | – | – | – | – | –
6 | CCOc1ccc(NC(=O)c2cc3ccccc3cc2O)cc1 [NSC50690, N-(4-ethoxyphenyl)-3-hydroxynaphthalene-2-carboxamide] | – | 0.061 ± 0.02 | inhibited both enzymes to approximately the same extent | submicromolar | 0.045 ± 0.023 | – | – | – | – | –
7 | COc1cccc(OCC(O)CN2CCN(c3ccccc3)CC2)c1 (centres unmarked) [NSC91378] | – | – | – | – | – | – | – | – | affect the rate | –
8 | CC(C)CC(NC(=O)OCc1ccccc1)C(=O)NC(Cc1c[nH]c2ccccc12)C(=O)O (centres unmarked) [NSC335979, (3-(1H–indol-3-yl)-2-[[4-methyl-2-(phenylmethoxycarbonylamino)pentanoyl]amino]propionate)] | reducing the Tm in a concentration dependent manner | – | inhibited FhGALE several orders of magnitude more strongly than HsGALE | submicromolar | – | – | 0.1 ± 0.046 | 210 ± 20 | – | selectivity for FhGALE over HsGALE
